Test results as given in US8017786B2, “Substituted β-phenyl-α-hydroxy-propanoic acid, synthesis method and use thereof” (Northwest University, priority 2006, dated 2011).

Tested on: anesthetized rats
Assay: Blood pressure and left ventricular function of anesthetized rats
Type: in vivo, rat
Parameters: contractive pressure, change ratio: unit not given here
Procedure: All data were input into PowerLab/8Sp data acquisition and processing system via RM-6000 multi-channel polygraph, and recorded, analyzed and processed by PowerLab/8Sp.
The abdomen was opened 1.5 cm below xiphoid bone to isolate duodenum, a small incision was formed on the duodenum away from blood vessels by ophthalmic scissors, a catheter was inserted and the incision was fixed by suture for administration. After the end of operation and a further waiting period of 30 min, normal data were recorded once the indexes to be monitored were stable.
Test drugs were duodenally administered via the catheter, and the indexes were monitored 5, 15, 30, 60, 90 and 120 min after the administration. The change ratios of the indexes were calculated in accordance with the following formula, and were used for statistic analysis among groups.

[1] = 9 mg/kg duodenal, 60 min after administration
[2] = 9 mg/kg duodenal, 90 min after administration
[3] = 9 mg/kg duodenal, 120 min after administration
[4] = 9 mg/kg duodenal, before administration
[5] = 18 mg/kg duodenal, 5 min after administration
[6] = 18 mg/kg duodenal, 15 min after administration

## CC1(C)C2CCC1(C)C(OC(=O)C(O)Cc1ccc(O)c(O)c1)C2 (stereo not drawn) [bornyl salvianate ester, bornyl β-(3,4-dihydroxylphenyl)-α-hydroxylpropionate ester]
[1]
  contractive pressure, change ratio: −12.63 ± 11.39
  diastolic pressure: 59.10 ± 16.07 mmHg
  diastolic pressure, change ratio: −14.30 ± 13.75
  heart rate: 359.61 ± 39.30 beat/min
  heart rate, change ratio: −4.52 ± 7.13
  left intraventricular pressure: 119.77 ± 23.09 mmHg
  left intraventricular pressure, change ratio: −6.84 ± 8.75
  mean arterial pressure: 77.89 ± 18.11 mmHg
  mean arterial pressure, change ratio: −13.46 ± 12.43
[2]
  change-rate of left intraventricular pressure MAX: 5113.5 ± 1356.4 mmHg/s
  change-rate of left intraventricular pressure MAX, change ratio: −6.4 ± 13.2
  change-rate of left intraventricular pressure, -MAX: −3629.7 ± 1013.3 mm/Hg/s
  change-rate of left intraventricular pressure, -MAX, change ratio: −7.2 ± 13.3
  contractive pressure: 120.90 ± 31.83 mmHg
  contractive pressure, change ratio: −8.80 ± 16.65
  diastolic pressure: 63.12 ± 19.81 mmHg
  diastolic pressure, change ratio: −8.83 ± 17.11
  heart rate: 354.38 ± 62.30 beat/min
  heart rate, change ratio: −4.13 ± 17.94
  left intraventricular pressure: 122.40 ± 26.58 mmHg
  left intraventricular pressure, change ratio: −4.88 ± 11.37
  mean arterial pressure: 82.38 ± 23.18 mmHg
  mean arterial pressure, change ratio: −8.77 ± 16.66
[3]
  change-rate of left intraventricular pressure MAX: 4959.8 ± 1399.0 mmHg/s
  change-rate of left intraventricular pressure MAX, change ratio: −9.7 ± 11.2
  change-rate of left intraventricular pressure, -MAX: −3541.7 ± 917.7 mm/Hg/s
  change-rate of left intraventricular pressure, -MAX, change ratio: −9.2 ± 11.3
  contractive pressure: 120.85 ± 32.13 mmHg
  contractive pressure, change ratio: −9.19 ± 14.65
  diastolic pressure: 62.58 ± 22.20 mmHg
  diastolic pressure, change ratio: −10.28 ± 17.60
  heart rate: 354.09 ± 47.98 beat/min
  heart rate, change ratio: −4.62 ± 12.34
  left intraventricular pressure: 121.85 ± 26.36 mmHg
  left intraventricular pressure, change ratio: −5.47 ± 9.76
  mean arterial pressure: 82.00 ± 25.04 mmHg
  mean arterial pressure, change ratio: −9.71 ± 15.95
[4]
  change-rate of left intraventricular pressure MAX: 5435.8 ± 1200.0 mmHg/s
  change-rate of left intraventricular pressure, -MAX: −3881.3 ± 735.6 mm/Hg/s
  contractive pressure: 132.26 ± 20.00 mmHg
  diastolic pressure: 69.21 ± 15.19 mmHg
  heart rate: 373.43 ± 41.28 beat/min
  left intraventricular pressure: 128.29 ± 18.38 mmHg
  mean arterial pressure: 90.23 ± 16.25 mmHg
9 mg/kg, significant at 15 and 60 min
  mean arterial pressure, systolic pressure and diastolic pressure (in words): exhibited a decrease tendency
9 mg/kg, significant at 60 and 120 min
  dp/dt (in words): exhibited a decrease tendency
9 mg/kg, significant at 60 min
  left intraventricular pressure (in words): exhibited a decrease tendency
[5]
  change-rate of left intraventricular pressure MAX: 5694.7 ± 1264.7 mmHg/s
  change-rate of left intraventricular pressure MAX, change ratio: −0.3 ± 9.3
  change-rate of left intraventricular pressure, -MAX: −4103.4 ± 981.2 mm/Hg/s
  change-rate of left intraventricular pressure, -MAX, change ratio: 0.0 ± 7.8
  contractive pressure: 128.34 ± 28.96 mmHg
  contractive pressure, change ratio: −0.06 ± 12.42
  diastolic pressure: 72.55 ± 16.58 mmHg
  diastolic pressure, change ratio: −1.00 ± 14.79
  heart rate: 358.56 ± 44.88 beat/min
  heart rate, change ratio: 0.22 ± 4.94
  left intraventricular pressure: 131.90 ± 18.96 mmHg
  left intraventricular pressure, change ratio: −0.01 ± 7.29
  mean arterial pressure: 91.15 ± 20.31 mmHg
  mean arterial pressure, change ratio: −0.58 ± 13.53
[6]
  change-rate of left intraventricular pressure MAX: 5470.3 ± 1416.7 mmHg/s
  change-rate of left intraventricular pressure MAX, change ratio: −4.7 ± 11.8
  change-rate of left intraventricular pressure, -MAX: −3991.9 ± 948.6 mm/Hg/s
  change-rate of left intraventricular pressure, -MAX, change ratio: −2.4 ± 9.3
  contractive pressure: 120.90 ± 26.54 mmHg
  contractive pressure, change ratio: −5.49 ± 14.53
  diastolic pressure: 68.87 ± 14.57 mmHg
  diastolic pressure, change ratio: −5.45 ± 15.82
  heart rate: 356.00 ± 40.82 beat/min
